Legend:
[1] = test system: hyperlipidemic golden hamsters; test: Hyperlipidemic golden hamster model, 4 weeks of treatment; format: in vivo; conditions: 50 mg/kg FENO po
[2] = test system: Zucker Diabetic Fatty (ZDF) rats; test: Zucker Diabetic Fatty (ZDF) rats, 4 weeks of treatment (GLU, HbA1c, insulin, TC, TG, BUN, organ index, TBA); format: in vivo, rat
[3] = biological target: T1, NTCP (Homo sapiens, UniProt Q14973); test: In vitro bile acids assay (3H-TA uptake by NTCP-293 cells)
T1 sequence (Q14973 1-349): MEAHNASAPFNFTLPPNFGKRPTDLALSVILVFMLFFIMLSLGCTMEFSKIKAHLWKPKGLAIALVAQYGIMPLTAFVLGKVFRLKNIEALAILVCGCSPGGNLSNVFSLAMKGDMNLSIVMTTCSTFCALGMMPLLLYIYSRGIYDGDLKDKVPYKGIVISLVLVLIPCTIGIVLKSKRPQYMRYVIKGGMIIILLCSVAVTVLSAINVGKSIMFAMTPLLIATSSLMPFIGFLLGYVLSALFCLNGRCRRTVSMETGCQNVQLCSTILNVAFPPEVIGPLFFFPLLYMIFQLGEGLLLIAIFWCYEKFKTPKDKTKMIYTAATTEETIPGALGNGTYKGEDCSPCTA

[4] = 300 mg/kg Met, 2 weeks of dosing
[5] = 300 mg/kg Met, 4 weeks of dosing
[6] = ZDF rats, after 4 weeks of treatment, 300 mg/kg Met oral gavage, mean ± SEM

In the case of `CC(C)OC(=O)C(C)(C)Oc1ccc(C(=O)c2ccc(Cl)cc2)cc1` [FENO, Fenofibrate], the “Serum TC (χ ± S)” value ([1]; 2 w of dosing) is reported as 6.63 ± 4.40 mmol/L, the “Serum TG (χ ± S)” value ([1]; 2 w of dosing) is reported as 3.14 ± 0.4 mmol/L and the “Serum TC (χ ± S)” value ([1]; 4 w of dosing) is reported as 7.42 ± 1.70 mmol/L. For the same molecule, the “Serum TG (χ ± S)” value ([1]; 4 w of dosing) was 2.68 ± 0.30 mmol/L, the “Serum HDL-C” value ([1]; 4 weeks post the treatment) was 3.13 ± 0.30 mmol/L and the “Serum LDL-C” value ([1]; 4 weeks post the treatment) was 1.88 ± 0.40 mmol/L. For the same molecule, the “AI (atherosclerosis index)” value ([1]; 4 weeks, AI=(TC−HDL-C)/HDL-C) was 1.36 ± 0.38, the “Serum TC (χ ± S)” value ([1]; before dosing) was 11.34 ± 0.50 mmol/L and the “Serum TG (χ ± S)” value ([1]; before dosing) was 6.16 ± 1.30 mmol/L.
`CN(C)C(=N)N=C(N)N` [Met, Metformin] was tested, and the “Fasting serum GLU (χ ± SEM)” value ([2]; 300 mg/kg Met oral gavage, 2 weeks of dosing) was 7.98 ± 1.02 mmol/L, the “Fasting serum GLU (χ ± SEM)” value ([2]; 300 mg/kg Met oral gavage, 4 weeks of dosing) was 8.35 ± 0.58 mmol/L and the “Fasting serum GLU (χ ± SEM)” value ([2]; 300 mg/kg Met oral gavage, week 0) was 9.71 ± 0.96 mmol/L. For the same molecule, the Serum BUN (χ ± SEM) [2, 4] was 6.58 ± 0.52 mM, the Serum TC (χ ± SEM) [2, 4] was 5.24 ± 0.35 mM and the “HbA1c level (χ ± SEM)” value [2, 5] was 5.07 ± 0.23 %. For the same molecule, the Serum BUN (χ ± SEM) [2, 5] was 7.09 ± 0.36 mM, the Serum TC (χ ± SEM) [2, 5] was 6.95 ± 0.54 mM and the “HbA1c level (χ ± SEM)” value ([2]; 300 mg/kg Met, week 0) was 6.25 ± 0.31%. For the same molecule, the Serum BUN (χ ± SEM) ([2]; 300 mg/kg Met, week 0) was 5.52 ± 0.21 mM, the Serum TC (χ ± SEM) ([2]; 300 mg/kg Met, week 0) was 3.82 ± 0.11 mM and the “Serum insulin (χ ± SEM)” value ([2]; 300 mg/kg Met, week 0) was 6.74 ± 0.62 ng/mL. The “Heart index (HI) vs model controls” value ([2]; MET 300 mg/kg, 4 weeks, FIG. 27A) was “had no effect on the HI values”, the “Total fat index (TFI) vs model controls” value ([2]; MET 300 mg/kg, 4 weeks, FIG. 27C) was “appeared to increase the TFI values” and the “Fasting serum GLU” value ([2]; MET positive control in the experiment with additional polypeptides, FIGS. 18A, 18B) was “significantly decreased fasting serum GLU”. For the same molecule, the Serum TBA level after weeks of dosing ([2]; ZDF rats, 300 mg/kg Met, week 0, mean ± SEM) was 32.8 ± 12.3 µM, the Serum TBA level after weeks of dosing ([2]; ZDF rats, 300 mg/kg Met, week 2, mean ± SEM) was 82.5 ± 27 µM and the Serum TBA level after weeks of dosing ([2]; ZDF rats, 300 mg/kg Met, week 4, mean ± SEM) was 83 ± 15.8 µM. The Heart index [2, 6] was 3.63 ± 0.24 g/kg, the Kidney index [2, 6] was 7.26 ± 0.55 g/kg and the Total fat index [2, 6] was 94.64 ± 3.79 g/kg.
In the case of `C=C[C@H]1C[N@@]2CC[C@H]1C[C@@H]2[C@@H](O)c1ccnc2ccc(OC)cc12` [quinidine], the “Effect on TA absorption” value ([3]; 0.1 μmol/L, FIG. 5E) is reported as “enhanced TA absorption” and the “Effect on TA absorption” value ([3]; 20 μmol/L, FIG. 5F) is reported as “enhanced TA absorption”.
